Measurements reported in patent US20180021361A1, “COMBINATION DRUG TREATMENT FOR HEPATITIS C INFECTION” (JANSSEN PHARMACEUTICALS, INC., priority 2016, published 2018).

What was measured:
[1] = Phase 2a open-label combination study, pharmacokinetics; format: in vivo, human
Procedure: A randomized, Phase 2a, open-label study was carried out to evaluate the safety, pharmacokinetics and efficacy of the combination of Compound (III), Odalasvir and Simeprevir in Genotype 1 treatment-naïve subjects with chronic hepatitis C. Other treatment-naïve subjects included Genotype 2, 3, 4, 5 and 6. The aim of the study was to determine the efficacy, pharmacokinetics (PK), and safety of Compound (III)+Odalasvir±SMV in HCV-infected subjects. […] Efficacy, PK and safety evaluations were conducted during and through 24 weeks post dosing. Up to 15 cohorts were enrolled; data was generated from cohorts that have completed dosing.

P-gp = P-gp (Homo sapiens, UniProt P08183); settings: efflux transporter; cited from earlier work
MRP2 = MRP2 (Homo sapiens, UniProt Q92887); settings: efflux transporter; cited from earlier work
BSEP = BSEP (Homo sapiens, UniProt O95342); settings: efflux transporter; cited from earlier work
MRP2/3 = MRP2/3 (Homo sapiens, UniProt O15438); settings: efflux transporter; cited from earlier work
OATP1B3 = target: T1, OATP1B3 (Homo sapiens, UniProt Q9NPD5); settings: uptake transporter; cited from earlier work
T1 sequence (Q9NPD5 1-702): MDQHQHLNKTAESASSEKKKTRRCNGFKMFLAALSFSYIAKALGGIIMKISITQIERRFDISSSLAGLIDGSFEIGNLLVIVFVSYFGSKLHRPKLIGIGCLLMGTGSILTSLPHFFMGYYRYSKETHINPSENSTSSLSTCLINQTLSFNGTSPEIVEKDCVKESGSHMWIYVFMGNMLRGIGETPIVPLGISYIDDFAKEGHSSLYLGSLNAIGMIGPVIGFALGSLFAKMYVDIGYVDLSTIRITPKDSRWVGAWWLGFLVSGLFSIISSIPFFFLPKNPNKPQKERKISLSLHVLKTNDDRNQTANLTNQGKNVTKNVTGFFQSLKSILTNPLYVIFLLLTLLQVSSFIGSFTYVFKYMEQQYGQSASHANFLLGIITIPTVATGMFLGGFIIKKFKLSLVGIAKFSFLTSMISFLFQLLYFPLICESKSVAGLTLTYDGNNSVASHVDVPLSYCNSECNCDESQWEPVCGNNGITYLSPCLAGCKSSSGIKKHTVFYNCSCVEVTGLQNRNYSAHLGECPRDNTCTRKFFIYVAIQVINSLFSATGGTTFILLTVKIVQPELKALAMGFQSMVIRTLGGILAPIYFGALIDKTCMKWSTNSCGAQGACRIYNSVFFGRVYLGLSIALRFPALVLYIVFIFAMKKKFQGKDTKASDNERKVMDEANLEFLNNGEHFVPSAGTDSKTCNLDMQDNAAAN

[2] = PK of single agents versus fixed dose combinations, single dose in healthy volunteers; format: in vivo, human; settings: for t1/2term: mean ± SD
Procedure: SMV (100 mg), ODV (50 mg), and Compound (III) (800 mg) were administered as three different formulations or together as single doses in vivo to healthy volunteers. The arms of the study included: • Arm 1 (Reference Arm): Single oral doses of single agents, one SMV 100-mg capsule, one ODV 50-mg tablet as granule layered solid dispersion with copovidone and poloxamers, and two Compound (III) 400-mg tablets, administered together. • Arm 2: Single oral dose of fixed dose combination (FDC02): SMV 100 mg+ODV 50 mg as a spray dried solid dispersion with HPMC-AS L in a ratio ODV/HPMC-AS L 1/1 w/w+Compound (III) 800 mg • Arm 3: Single oral dose of fixed dose combination (FDC04): SMV 100 mg+ODV 50 mg as a spray dried solid dispersion with HPMC-AS L in a ratio ODV/HPMC-AS L 1/3 w/w+Compound (III) 800 mg • Arm 4: Single oral dose of fixed dose combination (FDC01): SMV 100 mg+ODV 50 mg as a spray dried solid dispersion with copovidone and poloxamers+Compound (III) 800 mg
PK parameters, including Cmax, tmax, AUClast, and AUC∞ were measured for Compound (III), ODV, SMV, and metabolites Compound A-I and Compound A-3 for each Arm of the study. Arms that included fixed dose combinations (FDC) (Arm 2, Arm 3, and Arm 4) were then compared to a single oral dose (Arm 1, the reference Arm). Table 9, Table 10, Table 11, Table 12 and Table 13 display relevant PK parameters and FIG. 9, FIG. 10, FIG. 11, FIG. 12, and FIG. 13 depict the plasma concentration over time of SMV, ODV, Compound A-1, and Compound A-3 for each Arm of the study.

CYP = CYP inhibition

P-gp, sequence (P08183 whole entry): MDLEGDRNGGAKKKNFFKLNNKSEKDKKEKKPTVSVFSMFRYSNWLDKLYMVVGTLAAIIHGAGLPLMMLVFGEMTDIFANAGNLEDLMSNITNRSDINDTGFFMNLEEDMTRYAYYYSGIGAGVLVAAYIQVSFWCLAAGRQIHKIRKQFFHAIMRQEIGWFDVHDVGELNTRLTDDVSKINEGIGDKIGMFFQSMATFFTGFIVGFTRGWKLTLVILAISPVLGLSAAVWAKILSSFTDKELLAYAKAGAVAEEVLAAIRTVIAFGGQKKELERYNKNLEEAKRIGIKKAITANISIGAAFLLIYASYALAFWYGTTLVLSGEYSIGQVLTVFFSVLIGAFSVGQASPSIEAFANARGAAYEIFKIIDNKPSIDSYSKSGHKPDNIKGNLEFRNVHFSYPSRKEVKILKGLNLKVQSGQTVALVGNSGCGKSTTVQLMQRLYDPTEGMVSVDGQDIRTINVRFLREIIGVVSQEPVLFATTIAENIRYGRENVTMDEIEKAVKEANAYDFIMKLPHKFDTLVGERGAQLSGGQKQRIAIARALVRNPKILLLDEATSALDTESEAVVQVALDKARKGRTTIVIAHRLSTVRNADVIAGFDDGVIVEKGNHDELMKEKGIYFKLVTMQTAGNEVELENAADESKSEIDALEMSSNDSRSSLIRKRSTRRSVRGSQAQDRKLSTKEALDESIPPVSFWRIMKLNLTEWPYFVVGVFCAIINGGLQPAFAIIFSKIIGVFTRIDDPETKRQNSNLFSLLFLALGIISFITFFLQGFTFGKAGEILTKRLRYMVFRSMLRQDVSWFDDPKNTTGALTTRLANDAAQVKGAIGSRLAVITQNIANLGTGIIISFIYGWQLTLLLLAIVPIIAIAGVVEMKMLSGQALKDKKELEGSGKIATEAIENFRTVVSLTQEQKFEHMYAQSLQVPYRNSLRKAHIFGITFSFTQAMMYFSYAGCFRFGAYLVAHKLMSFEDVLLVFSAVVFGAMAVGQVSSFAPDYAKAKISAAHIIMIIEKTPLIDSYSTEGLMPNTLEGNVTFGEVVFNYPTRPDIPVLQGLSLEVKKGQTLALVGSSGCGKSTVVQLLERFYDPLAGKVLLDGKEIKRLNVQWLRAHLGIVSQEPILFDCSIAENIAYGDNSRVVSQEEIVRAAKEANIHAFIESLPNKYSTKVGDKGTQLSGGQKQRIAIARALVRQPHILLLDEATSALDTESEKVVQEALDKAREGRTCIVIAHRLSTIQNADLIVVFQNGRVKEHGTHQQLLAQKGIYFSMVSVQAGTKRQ
MRP2/3, sequence (O15438 whole entry): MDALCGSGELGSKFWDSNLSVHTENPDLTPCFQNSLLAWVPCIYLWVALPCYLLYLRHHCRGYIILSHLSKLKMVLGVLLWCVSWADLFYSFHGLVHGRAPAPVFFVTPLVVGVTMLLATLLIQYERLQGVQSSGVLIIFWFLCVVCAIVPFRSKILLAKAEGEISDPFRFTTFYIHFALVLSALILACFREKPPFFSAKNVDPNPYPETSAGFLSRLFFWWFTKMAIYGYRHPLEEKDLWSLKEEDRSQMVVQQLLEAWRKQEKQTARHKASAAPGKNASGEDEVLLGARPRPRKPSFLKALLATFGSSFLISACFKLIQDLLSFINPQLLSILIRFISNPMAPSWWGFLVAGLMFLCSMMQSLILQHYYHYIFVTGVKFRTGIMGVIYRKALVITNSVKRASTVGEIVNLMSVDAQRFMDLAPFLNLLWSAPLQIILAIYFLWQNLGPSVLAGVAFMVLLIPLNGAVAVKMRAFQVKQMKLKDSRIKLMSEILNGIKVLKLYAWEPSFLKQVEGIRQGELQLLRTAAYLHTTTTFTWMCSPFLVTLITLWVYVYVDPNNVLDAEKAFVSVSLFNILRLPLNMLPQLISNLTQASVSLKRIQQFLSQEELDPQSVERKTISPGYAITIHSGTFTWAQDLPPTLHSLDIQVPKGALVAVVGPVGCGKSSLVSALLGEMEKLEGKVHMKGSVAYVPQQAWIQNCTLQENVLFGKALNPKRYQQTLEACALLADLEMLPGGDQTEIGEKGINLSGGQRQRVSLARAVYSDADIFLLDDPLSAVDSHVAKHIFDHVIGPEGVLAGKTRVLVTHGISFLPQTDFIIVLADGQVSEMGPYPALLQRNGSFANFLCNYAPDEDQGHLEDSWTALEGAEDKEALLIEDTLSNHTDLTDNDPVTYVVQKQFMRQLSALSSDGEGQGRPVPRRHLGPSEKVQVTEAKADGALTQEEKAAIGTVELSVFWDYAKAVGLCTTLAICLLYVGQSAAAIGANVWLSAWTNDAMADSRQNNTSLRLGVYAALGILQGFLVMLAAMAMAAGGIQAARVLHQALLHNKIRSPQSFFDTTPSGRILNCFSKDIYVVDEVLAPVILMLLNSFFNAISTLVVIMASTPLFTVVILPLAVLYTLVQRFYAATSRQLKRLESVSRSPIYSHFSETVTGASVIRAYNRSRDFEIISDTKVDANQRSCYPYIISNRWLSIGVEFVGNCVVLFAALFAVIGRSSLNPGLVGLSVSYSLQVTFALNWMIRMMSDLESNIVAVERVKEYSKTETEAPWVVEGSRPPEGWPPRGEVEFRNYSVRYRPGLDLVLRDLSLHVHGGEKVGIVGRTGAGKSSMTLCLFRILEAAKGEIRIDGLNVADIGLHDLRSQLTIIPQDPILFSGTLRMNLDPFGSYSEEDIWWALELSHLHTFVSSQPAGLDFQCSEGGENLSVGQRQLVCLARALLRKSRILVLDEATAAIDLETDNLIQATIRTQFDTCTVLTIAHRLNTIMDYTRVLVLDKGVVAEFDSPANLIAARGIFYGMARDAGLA
MRP2, sequence (Q92887 whole entry): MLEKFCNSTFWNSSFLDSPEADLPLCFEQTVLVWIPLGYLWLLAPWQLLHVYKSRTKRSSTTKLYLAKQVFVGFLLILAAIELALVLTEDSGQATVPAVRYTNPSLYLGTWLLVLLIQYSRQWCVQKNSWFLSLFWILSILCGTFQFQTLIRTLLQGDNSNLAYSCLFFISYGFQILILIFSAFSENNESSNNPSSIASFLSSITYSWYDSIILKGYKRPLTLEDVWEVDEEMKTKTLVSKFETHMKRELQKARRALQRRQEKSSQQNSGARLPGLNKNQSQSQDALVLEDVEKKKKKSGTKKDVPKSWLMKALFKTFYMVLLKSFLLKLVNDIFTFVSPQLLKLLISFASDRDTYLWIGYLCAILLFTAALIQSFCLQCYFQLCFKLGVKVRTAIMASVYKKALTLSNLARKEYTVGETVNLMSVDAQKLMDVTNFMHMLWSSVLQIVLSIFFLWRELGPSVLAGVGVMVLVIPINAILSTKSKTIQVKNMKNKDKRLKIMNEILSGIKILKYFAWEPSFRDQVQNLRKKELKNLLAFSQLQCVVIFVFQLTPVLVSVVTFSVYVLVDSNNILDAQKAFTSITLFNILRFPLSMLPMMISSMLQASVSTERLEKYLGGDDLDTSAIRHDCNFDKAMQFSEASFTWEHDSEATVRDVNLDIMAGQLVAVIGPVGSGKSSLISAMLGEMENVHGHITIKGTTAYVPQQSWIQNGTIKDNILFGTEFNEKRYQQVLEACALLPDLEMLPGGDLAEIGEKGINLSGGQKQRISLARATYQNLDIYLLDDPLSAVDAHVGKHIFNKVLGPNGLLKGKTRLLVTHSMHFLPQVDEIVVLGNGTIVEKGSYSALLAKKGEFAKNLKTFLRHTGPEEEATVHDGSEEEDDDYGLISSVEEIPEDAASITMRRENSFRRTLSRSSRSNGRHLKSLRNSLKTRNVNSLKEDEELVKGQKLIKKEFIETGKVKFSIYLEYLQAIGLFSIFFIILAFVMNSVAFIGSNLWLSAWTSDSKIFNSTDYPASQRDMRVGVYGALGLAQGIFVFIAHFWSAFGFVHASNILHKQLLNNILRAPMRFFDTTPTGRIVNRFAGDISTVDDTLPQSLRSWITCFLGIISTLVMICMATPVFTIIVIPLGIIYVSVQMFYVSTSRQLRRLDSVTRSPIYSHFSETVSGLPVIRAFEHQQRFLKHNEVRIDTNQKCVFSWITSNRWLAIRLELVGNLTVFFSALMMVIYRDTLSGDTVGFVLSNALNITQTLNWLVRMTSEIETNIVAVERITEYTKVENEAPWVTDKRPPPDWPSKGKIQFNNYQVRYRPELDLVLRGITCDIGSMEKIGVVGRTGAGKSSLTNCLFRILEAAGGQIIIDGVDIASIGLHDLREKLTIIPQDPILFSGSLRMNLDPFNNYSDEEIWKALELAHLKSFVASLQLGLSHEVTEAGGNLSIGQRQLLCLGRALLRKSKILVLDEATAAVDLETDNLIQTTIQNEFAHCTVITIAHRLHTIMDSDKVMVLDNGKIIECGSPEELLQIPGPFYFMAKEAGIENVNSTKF

Q: What does the source list for `COC(=O)N[C@H](C(=O)N1[C@H](c2nc3cc(-c4cc5ccc4CCc4ccc(c(-c6ccc7[nH]c([C@@H]8C[C@@H]9CCCC[C@@H]9N8C(=O)[C@@H](NC(=O)OC)C(C)C)nc7c6)c4)CC5)ccc3[nH]2)C[C@@H]2CCCC[C@@H]21)C(C)C` [ODV, methyl [(2S)-1-[(2S,3aS,7aS)-2-[6-[11-[2-[(2S,3aS,7aS)-1-[(2S)-2-[(methoxycarbonyl)amino]-3-methylbutanoyl]octahydro-1H-indol-2-yl]-1H-benzimidazol-6-yl]tricyclo[8.2.2.2^4,7]hexadeca-1(12),4,6,10,13,15-hexaen-5-yl]-1H-benzimidazol-2-yl]octahydro-1H-indol-1-yl]-3-methyl-1-oxobutan-2-yl]carbamate]?
A: decrease of exposure on reducing Odalasvir dosing from once a day to every other day ([1]; 50 mg): proportionally; observed exposure in Cohort 1 / group (i) versus anticipated ([1]; Compound (III) 400 mg, ODV 50 mg QD, SMV 100 mg QD): higher than anticipated; in vitro inhibition of P-gp (P-gp): moderate inhibition; in vitro inhibition of MRP2 (MRP2): no inhibition; in vitro inhibition of BSEP (BSEP): no inhibition; in vitro inhibition of MRP3 (MRP2/3): no inhibition; in vitro inhibition of OATP1B3 (OATP1B3): no inhibition

Q: For `CC(C)OC(=O)C(C)N[P@](=O)(OC[C@@]1(F)O[C@@H](n2ccc(=O)[nH]c2=O)[C@](C)(O)[C@@H]1O)Oc1ccccc1` (stereo in doubt) [Compound (III)], which t1/2term ([2]; Arm 1 (reference): single agents, single oral dose) is on record?
A: 36 ± 6 min

Q: And the t1/2term ([2]; Arm 2: FDC02, single oral dose)?
A: 42 ± 12 min

Q: And the t1/2term ([2]; Arm 3: FDC04, single oral dose)?
A: 42 ± 6 min

Q: And the t1/2term ([2]; Arm 4: FDC01, single oral dose)?
A: 36 ± 6 min

Q: And the Tmax ([2]; human, in vivo, Arm 1 (reference): single agents, single oral dose, median [range])?
A: 120 min

Q: And the “in vitro inhibition of P-gp” value (P-gp)?
A: no in vitro inhibition

Q: And the “in vitro inhibition of OATP1B3” value (OATP1B3)?
A: no in vitro inhibition

Q: And the IC50 (CYP)?
A: > 26 µM
